From patent US20250154193A1, “STEROID COMPOUND, AND PREPARATION METHOD THEREFOR AND APPLICATION THEREOF” (CHOLESGEN (SHANGHAI) CO., LTD., priority 2022, published 2025)

System: SREBP pathway
Experiment: SREBP luciferase reporter gene system (SRE-luciferase assay) in Huh-7/SRE-Luc cells
Type: cell-based
Details: Homo sapiens, sterol-deficient medium, compound treatment 16 hours, luciferase/GFP ratio
Experimental: Huh-7/SRE-Luc, a human hepatocellular carcinoma cell line, was grown in a culture medium containing DMEM, 10% fetal bovine serum, 100 units/mL penicillin, 100 µg/mL streptomycin, and 200 μg/mL G418.
The Huh-7/SRE-Luc cell line is a human hepatocellular carcinoma cell line Huh-7 stably expressing LDLR promoter-luciferase and green fluorescent protein (GFP). The LDLR promoter region contains a sterol regulatory element (SRE) that can effectively and sensitively respond to the regulation of the transcription factor SREBP. The GFP signal serves as an internal reference to indicate changes in cell number. Therefore, this cell line can be used to screen for active small molecules that regulate the SREBP signaling pathway. […] Cells were incubated in a sterol-deficient medium (5% lipoprotein-deficient serum, 2 μM Lovastatin, 10 μM mevalonate) and treated with corresponding concentrations of compounds for 16 hours. After compound treatment, the cells were lysed with lysis buffer (E397A, Promega), followed by the addition of luciferase substrate (E1500, Promega). The SRE-driven luciferase activity was measured using a BioTek Synergy HTX microplate reader (including but not limited to this type of instrument). The fluorescence intensity of enhanced green fluorescent protein (EGFP) was also measured using the BioTek microplate reader (including but not limited to this type of instrument) and used as an internal reference. The ratio of SRE-driven luciferase activity to GFP fluorescence intensity was used as an indicator of SREBP pathway activity. The test data of each test compound was analyzed using Prism software to obtain the IC50 parameter of the compound.
The inhibitory effect of the compounds of the present disclosure on the SREBP pathway was tested by the method of bioassay example 2. The concentration gradient of each compound was designed as 0.01, 0.03, 0.1, 0.3, 1.0, 3.0, and […], with DMSO as a vehicle control.

**Q.** For `C[C@H](CCCC(O)C(F)(F)F)[C@H]1CC[C@H]2[C@@H]3CC[C@H]4[C@@H](O)[C@@H](O)CC[C@]4(C)[C@H]3CC[C@]12C` (stereo partly drawn) [compound 232, 24-(2,2,2-trifluoro-1-hydroxyethyl)-5α-cholan-3β,4β-diol], which IC50 is on record?
**A.** Its IC50 is 0.084 µM.

**Q.** With `C[C@H](CCCC(C)(C)O)[C@H]1CC[C@H]2[C@@H]3CC(O)C4(F)C[C@@H](O)CC[C@]4(C)[C@H]3CC[C@]12C` (some centres unmarked) [compound 226] as the compound, how does the IC50 read?
**A.** Its IC50 is 46.6 µM.

**Q.** With `C[C@H](CCCC(C)(C)O)[C@H]1CC[C@H]2[C@@H]3CC[C@]4(O)[C@@H](O)[C@@H](O)CC[C@]4(C)[C@H]3CC[C@]12C` (single isomer, unassigned) [compound 248, cholest-3β,4,5,25-tetraol] as the compound, how does the IC50 read?
**A.** The IC50 was 0.766 µM.

**Q.** With `C[C@H](CCCC(O)c1ccccc1C(F)(F)F)[C@H]1CC[C@H]2[C@@H]3CC[C@H]4[C@@H](O)[C@@H](O)CC[C@]4(C)[C@H]3CC[C@]12C` (stereo partly drawn) [compound 286, 24-{hydroxy[2-(trifluoromethyl)phenyl]methyl}-5α-cholan-30,40-diol] as the compound, how does the IC50 read?
**A.** Its IC50 is 0.575 µM.

**Q.** For `C[C@H](CCCC1(O)CC1)[C@H]1CC[C@H]2[C@@H]3CC[C@H]4C[C@@H](O)CC[C@]4(C)[C@H]3CC[C@]12C` [compound 253, 24-(hydroxycyclopropyl)-5α-cholan-3β-ol], which IC50 is on record?
**A.** Its IC50 is 0.187 µM.

**Q.** Which IC50 does the source give for `C[C@H](CCCC(O)c1ccc(F)cc1)[C@H]1CC[C@H]2[C@@H]3CC[C@H]4[C@@H](O)[C@@H](O)CC[C@]4(C)[C@H]3CC[C@]12C` (stereo partly drawn) [compound 316, 24-[(4-fluorophenyl)(hydroxy)methyl]-5α-cholan-3β,4β-diol] here?
**A.** The IC50 was 0.1 µM.

**Q.** `C[C@H](CCCC(C)(C)O)[C@H]1CC[C@H]2[C@@H]3C[C@@H](N)[C@H]4[C@@H](O)[C@@H](O)CC[C@]4(C)[C@H]3CC[C@]12C` [compound 295, 6-amino-5α-cholest-3β,4p,25-triol] was tested. Which IC50 did it give?
**A.** The IC50 was > 10 µM.

**Q.** Which IC50 does the source give for `CCC(O)CCC[C@@H](C)[C@H]1CC[C@H]2[C@@H]3CC[C@H]4[C@@H](O)[C@@H](O)CC[C@]4(C)[C@H]3CC[C@]12C` (stereo partly drawn) [compound 241, 24-(1-hydroxypropyl)-5α-cholan-3β,4β-diol] here?
**A.** Its IC50 is 0.328 µM.

**Q.** How did the IC50 turn out when `C[C@H](CCCC(C)(C)O)[C@H]1CC[C@H]2[C@@H]3C[C@H](O)[C@H]4C[C@@H](O)CC[C@]4(C)[C@H]3CC[C@]12C` [compound 240, cholest-30,6a,25-triol] was run?
**A.** Its IC50 is 0.67 µM.

**Q.** Which IC50 does the source give for `C[C@H](CCCC(C)(C)O)[C@H]1CC[C@H]2[C@@H]3CC[C@H]4CC(CO)CC[C@]4(C)[C@H]3CC[C@]12C` (stereo partly drawn) [compound 308, 3-(hydroxymethyl)-5α-cholest-25-ol] here?
**A.** The IC50 was 0.979 µM.

**Q.** How did the IC50 turn out when `C[C@H](CCCC(C)(C)O)[C@H]1CC[C@H]2[C@@H]3CC[C@H]4C(=NO)[C@@H](O)CC[C@]4(C)[C@H]3CC[C@]12C` (stereo in doubt) [compound 273, [(1R,3aS,3bS,5aR,6E,7S,9aR,9bS,11aR)-7-hydroxy-1-[(2R)-6-hydroxy-6-methylheptan-2-yl]-9a,11a-dimethylhexadecahydro-1H-cyclopenta[1,2-a]phenanthren-6-ylidene]hydroxylamine] was run?
**A.** The IC50 was 0.279 µM.

**Q.** For `CCC(O)CCC[C@@H](C)[C@H]1CC[C@H]2C3CC[C@H]4C[C@@H](O)CC[C@]4(C)C3CC[C@]12C` (stereo partly drawn) [compound 211, (1R,3aS,5aS,7S,9aS,11aR)-1-[(2R)-6-hydroxyoctan-2-yl]-3a,9a,11a-trimethylhexadecahydro-1H-cyclopenta[1,2-α]phenanthren-7-ol], which IC50 is on record?
**A.** The IC50 was 0.395 µM.

**Q.** For `C[C@H](CCCC(C)(C)O)[C@H]1CC[C@H]2[C@@H]3C(O)C[C@H]4C[C@@H](O)CC[C@]4(C)[C@H]3CC[C@]12C` (stereo partly drawn) [compound 210, 5α-cholest-3β,7,25-triol], which IC50 is on record?
**A.** Its IC50 is 0.837 µM.

**Q.** Which IC50 does the source give for `C[C@H](CCCC(C)(C)O)[C@H]1CC[C@H]2[C@@H]3CC(=O)[C@H]4[C@@H](O)[C@@H](O)CC[C@]4(C)[C@H]3CC[C@]12C` [compound 235, 25-hydroxy-4β-hydroxy-3β-hydroxy-5α-cholest-6-one] here?
**A.** The IC50 was 10.8 µM.

**Q.** How did the IC50 turn out when `C[C@H](CCCC(C)(C)O)[C@H]1CC[C@H]2[C@@H]3CC(C#N)C4(O)C[C@@H](O)CC[C@]4(C)[C@H]3CC[C@]12C` (some centres unmarked) [compound 227] was run?
**A.** The IC50 was 1.33 µM.

**Q.** Which IC50 does the source give for `C[C@H](CCCC(C)(C)O)[C@H]1CC[C@H]2[C@@H]3C(O)C[C@H]4[C@@H](O)[C@@H](O)CC[C@]4(C)[C@H]3CC[C@]12C` (stereo partly drawn) [compound 231, cholest-3β,4p,7,25-tetraol] here?
**A.** The IC50 was 1.03 µM.

**Q.** With `C[C@H](CCCC(O)c1ccccc1F)[C@H]1CC[C@H]2[C@@H]3C(=O)C[C@H]4[C@@H](O)[C@@H](O)CC[C@]4(C)[C@H]3CC[C@]12C` (stereo partly drawn) [compound 271, 24-[(2-fluorophenyl)(hydroxy)methyl]-4β-hydroxy-3β-hydroxy-5α-cholan-7-one] as the compound, how does the IC50 read?
**A.** Its IC50 is 0.139 µM.

**Q.** `COC1C[C@H]2[C@@H]3CC[C@H]([C@H](C)CCCC(C)(C)O)[C@@]3(C)CC[C@@H]2[C@@]2(C)CC[C@H](O)CC12O` (stereo partly drawn) [compound 208, 6-methoxycholest-3β,5,25-triol] was tested. Which IC50 did it give?
**A.** The IC50 was 1.93 µM.

**Q.** How did the IC50 turn out when `C[C@H](CCCC(C)(C)O)[C@H]1CC[C@H]2[C@@H]3CC[C@H]4[C@@H](N)[C@@H](O)CC[C@]4(C)[C@H]3CC[C@]12C` [compound 303, 4-amino-5α-cholest-3β,25-diol] was run?
**A.** Its IC50 is 7.08 µM.

**Q.** Which IC50 does the source give for `C[C@H](CCCC(O)c1ccccc1Cl)[C@H]1CC[C@H]2[C@@H]3CC[C@H]4[C@@H](O)[C@@H](O)CC[C@]4(C)[C@H]3CC[C@]12C` (stereo partly drawn) [compound 322, 24-[(2-chlorophenyl)(hydroxy)methyl]-5α-cholan-3β,4β-diol] here?
**A.** The IC50 was 0.61 µM.

**Q.** With `C[C@H](CCCC(C)(C)O)[C@H]1CC[C@H]2[C@@H]3CC[C@H]4C(F)(F)[C@@H](O)CC[C@]4(C)[C@H]3CC[C@]12C` [compound 291, (1R,3aS,3bS,5aR,7S,9aR,9bS,11aR)-6,6-difluoro-1-[(2R)-6-hydroxy-6-methylheptan-2-yl]-9a,11a-dimethylhexadecahydro-1H-cyclopenta[1,2-a]phenanthrene-7-ol] as the compound, how does the IC50 read?
**A.** The IC50 was 0.065 µM.

**Q.** `C[C@H](CCCC(C)(C)O)[C@H]1CC[C@H]2[C@@H]3CC[C@H]4C[C@@H](OC(=O)CO)CC[C@]4(C)[C@H]3CC[C@]12C` [compound 292, (1R,3aS,3bR,5aS,7S,9aS,9bS,11aR)-1-[(2R)-6-hydroxy-6-methylheptan-2-yl]-9a,11a-dimethylhexadecahydro-1H-cyclopenta[1,2-i]phenanthren-7-yl hydroxyacetate] was tested. Which IC50 did it give?
**A.** Its IC50 is 0.171 µM.

**Q.** `C[C@H](CCCC(C)(C)O)[C@H]1CC[C@H]2[C@@H]3CC[C@H]4CC(NS(C)(=O)=O)CC[C@]4(C)[C@H]3CC[C@]12C` (stereo partly drawn) [compound 310, N-[(1R,3aS,3bR,9aS,9bS,11aR)-1-[(2R)-6-hydroxy-6-methylheptan-2-yl]-9a,11a-dimethylhexadecahydro-1H-cyclopenta[1,2-a]phenanthrene-7-yl]methanesulfonamide] was tested. Which IC50 did it give?
**A.** The IC50 was 1.41 µM.

**Q.** How did the IC50 turn out when `C[C@H](CCCC1(O)CC1)[C@H]1CC[C@H]2[C@@H]3CC[C@H]4[C@@H](O)[C@@H](O)CC[C@]4(C)[C@H]3CC[C@]12C` [compound 245, (1R,3aS,5aR,6R,7S,9aR,11aR)-1-[(2R)-5-(hydroxycyclopropyl)pentan-2-yl]-9a,11a-dimethylhexadecahydro-1H-cyclopenta[1,2-a]phenanthrene-6,7-diol] was run?
**A.** Its IC50 is 0.192 µM.

**Q.** How did the IC50 turn out when `C[C@H](CCC[C@H](O)c1ccccc1F)[C@H]1CC[C@H]2[C@@H]3CC[C@H]4[C@@H](O)[C@@H](O)CC[C@]4(C)[C@H]3CC[C@]12C` (single isomer, unassigned) [compound 280, 24-[R-(2-fluorophenyl)(hydroxy)methyl]-5α-cholan-30,40-diol or 24-[S-(2-fluorophenyl)(hydroxy)methyl]-5α-cholan-30,40-diol] was run?
**A.** Its IC50 is 0.118 µM.

**Q.** How did the IC50 turn out when `CC(O)CCC[C@@H](C)[C@H]1CC[C@H]2[C@@H]3CC[C@H]4[C@@H](O)[C@@H](O)CC[C@]4(C)[C@H]3CC[C@]12C` (stereo partly drawn) [compound 304, 24-(1-hydroxyethyl)-5α-cholan-3β,4β-diol] was run?
**A.** Its IC50 is 0.173 µM.

**Q.** `C[C@H](CCCC(C)(C)O)[C@H]1CC[C@H]2[C@@H]3CC[C@H]4CC(C)(O)CC[C@]4(C)[C@H]3CC[C@]12C` (some centres unmarked) [compound 307, 3-methylcholest-3,25-diol] was tested. Which IC50 did it give?
**A.** Its IC50 is 0.588 µM.

**Q.** Which IC50 does the source give for `C[C@H](CCCC(C)(C)O)[C@H]1CC[C@@]2(C)[C@@H]3C(O)C[C@H]4C(C)(C)[C@@H](O)CC[C@]4(C)[C@H]3CC[C@]12C` (stereo partly drawn) [compound 237, (1R,3aS,5aR,7S,9aR,11aR)-1-[(2R)-6-hydroxy-6-methylheptan-2-yl]-3a,6,6,9a,11a-pentamethylhexadecahydro-1H-cyclopenta[1,2-α]phenanthrene-4,7-diol] here?
**A.** Its IC50 is 7.04 µM.

**Q.** `C[C@H](CCCC(C)(C)O)[C@H]1CC[C@H]2[C@@H]3C[C@H](O)[C@H]4[C@@H](O)[C@@H](O)CC[C@]4(C)[C@H]3CC[C@]12C` [compound 272, 5α-cholest-3β,4P,6α,25-tetraol] was tested. Which IC50 did it give?
**A.** Its IC50 is 20.1 µM.
